Reference: patent US9499538B2, “Estrogen receptor modulators and uses thereof” (Seragon Pharmaceuticals, Inc., priority 2012, dated 2016)

Key:
[1] = system: MCF-7 cells; assay: Breast Cancer Cell Viability Assays (MCF-7, CellTiter-Glo); assay type: cell-based; settings: 5 days' compound exposure; for IC50: Homo sapiens, MCF7, 120 h
Procedure, shortened: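 Percent viability, background-subtracted against untreated wells, was taken from CellTiter-Glo luminescence after 5 days' exposure of MCF-7 cells. Compounds were tested at eleven semilog concentrations, final 0.3–0.000003 μM, in RPMI containing 10% FBS.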

[2] = target: T1, ER-α in MCF-7 cells (Homo sapiens, UniProt P03372); assay: Breast Cancer Cell ER-α In Cell Western Assay (SP1); assay type: cell-based; settings: 4 or 24 hr post compound addition; for Emax: MCF7, SP1 antibody, read-out: ER-α In Cell Western Assay (SP1) Max Response; for DC50: SP1 antibody, read-out: ER-α In Cell Western Assay (SP1) IC50
T1 construct: endogenous in cells; host or cells: MCF-7
T1 sequence (P03372 1-595): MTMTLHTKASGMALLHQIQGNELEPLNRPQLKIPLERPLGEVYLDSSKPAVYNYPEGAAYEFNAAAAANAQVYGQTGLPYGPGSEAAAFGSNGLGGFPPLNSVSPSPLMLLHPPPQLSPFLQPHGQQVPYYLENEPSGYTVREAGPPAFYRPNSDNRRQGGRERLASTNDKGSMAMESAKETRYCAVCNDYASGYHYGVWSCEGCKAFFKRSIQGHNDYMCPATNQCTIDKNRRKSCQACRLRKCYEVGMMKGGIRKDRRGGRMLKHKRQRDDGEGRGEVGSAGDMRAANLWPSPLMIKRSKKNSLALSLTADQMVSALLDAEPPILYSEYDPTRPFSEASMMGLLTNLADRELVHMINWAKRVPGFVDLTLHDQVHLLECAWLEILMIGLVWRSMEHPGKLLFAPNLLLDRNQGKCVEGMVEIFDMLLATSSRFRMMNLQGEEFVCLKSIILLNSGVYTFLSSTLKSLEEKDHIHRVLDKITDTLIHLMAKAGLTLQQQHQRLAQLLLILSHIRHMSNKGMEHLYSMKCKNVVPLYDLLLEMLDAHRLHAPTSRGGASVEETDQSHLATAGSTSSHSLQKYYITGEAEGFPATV
Procedure, shortened: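 ER-α levels quantified by in-cell western: SP1 signal normalised to DRAQ5 DNA stain, relative to untreated cells (% ER). Compounds at 0.3–0.000003 μM final, 11-point semilog series, 4 or 24 h exposure of MCF-7 cells grown in charcoal-stripped serum.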

Compound | MCF7 Viability Assay Max Response [1] | IC50 [1] | Emax [2] | DC50 [2]
O=C(O)/C=C/c1ccc(/C(=C(\c2ncc(Cl)cc2Cl)C2CCC2)c2ccc3[nH]nc(F)c3c2)cc1 [Example 146, (E)-3-(4-((E)-2-Cyclobutyl-2-(3,5-dichloropyridin-2-yl)-1-(3-fluoro-1H-indazol-5-yl)vinyl)phenyl)acrylic acid] | ++ (++ = a single % value ≧ 40%) | ≤ 100 nM | ≥ 40% | ≤ 100 nM
COc1cccc(/C(=C(\c2ccc(/C=C/C(=O)O)cc2)c2ccc3[nH]nc(F)c3c2)C2CCC2)n1 [Example 147, (E)-3-(4-((E)-2-Cyclobutyl-1-(3-fluoro-1H-indazol-5-yl)-2-(6-methoxypyridin-2-yl)vinyl)phenyl)acrylic acid] | ++ (++ = a single % value ≧ 40%) | ≤ 100 nM | ≥ 40% | ≤ 100 nM
N#Cc1n[nH]c2ccc(/C(=C(/c3ccccc3)C3CCC3)c3ccc(/C=C/C(=O)O)cc3)cc12 [Example 148, (E)-3-(4-((E)-1-(3-Cyano-1H-indazol-5-yl)-2-cyclobutyl-2-phenylvinyl)phenyl)acrylic acid] | ++ (++ = a single % value ≧ 40%) | ≤ 100 nM | ≥ 40% | ≤ 100 nM
Cc1sccc1/C(=C(\c1ccc(/C=C/C(=O)O)cc1)c1ccc2[nH]nc(F)c2c1)C1CCC1 [Example 149, (E)-3-(4-((E)-2-Cyclobutyl-1-(3-fluoro-1H-indazol-5-yl)-2-(2-methylthiophen-3-yl)vinyl)phenyl)acrylic acid] | ++ (++ = a single % value ≧ 40%) | ≤ 100 nM | ≥ 40% | ≤ 100 nM
Cc1cc(/C(=C(\c2ccc(/C=C/C(=O)O)cc2)c2ccc3[nH]nc(F)c3c2)C2CCC2)c(C)s1 [Example 150, (E)-3-(4-((E)-2-Cyclobutyl-2-(2,5-dimethylthiophen-3-yl)-1-(3-fluoro-1H-indazol-5-yl)vinyl)phenyl)acrylic acid] | ++ (++ = a single % value ≧ 40%) | ≤ 100 nM | ≥ 40% | ≤ 100 nM
CC/C(=C(/c1ccc(/C=C/C(=O)O)cc1)c1ccc2[nH]ncc2c1)c1ccc(C#N)cc1F [Example 151, (E)-3-(4-((E)-2-(4-Cyano-2-fluorophenyl)-1-(1H-indazol-5-yl)but-1-en-1-yl)phenyl)acrylic acid] | ++ (++ = a single % value ≧ 40%) | ≤ 100 nM | ≥ 40% | ≤ 100 nM
O=C(O)/C=C/c1ccc(/C(=C(\c2ccc(F)cc2Cl)C2CC2)c2ccc3[nH]nc(F)c3c2)cc1 [Example 152, (E)-3-(4-((E)-2-(2-Chloro-4-fluorophenyl)-2-cyclopropyl-1-(3-fluoro-1H-indazol-5-yl)vinyl)phenyl)acrylic acid] | ++ (++ = a single % value ≧ 40%) | ≤ 100 nM | ≥ 40% | ≤ 100 nM
O=C(O)/C=C/c1ccc(/C(=C(\c2ccccc2Cl)C2CC2)c2ccc3[nH]nc(F)c3c2)cc1 [Example 153, (E)-3-(4-((E)-2-(2-Chlorophenyl)-2-cyclopropyl-1-(3-fluoro-1H-indazol-5-yl)vinyl)phenyl)acrylic acid] | ++ (++ = a single % value ≧ 40%) | ≤ 100 nM | ≥ 40% | ≤ 100 nM
O=C(O)/C=C/c1ccc(/C(=C(\c2ccccc2F)C2CC2)c2ccc3[nH]nc(F)c3c2)cc1 [Example 154, (E)-3-(4-((E)-2-Cyclopropyl-1-(3-fluoro-1H-indazol-5-yl)-2-(2-fluorophenyl)vinyl)phenyl)acrylic acid] | ++ (++ = a single % value ≧ 40%) | ≤ 100 nM | ≥ 40% | ≤ 100 nM
N#Cc1cc(F)ccc1/C(=C(\c1ccc(/C=C/C(=O)O)cc1)c1ccc2[nH]nc(F)c2c1)C1CC1 [Example 155, (E)-3-(4-((E)-2-(2-Cyano-4-fluorophenyl)-2-cyclopropyl-1-(3-fluoro-1H-indazol-5-yl)vinyl)phenyl)acrylic acid] | ++ (++ = a single % value ≧ 40%) | ≤ 100 nM | ≥ 40% | ≤ 100 nM
N#Cc1ccc(/C(=C(\c2ccc(/C=C/C(=O)O)cc2)c2ccc3[nH]nc(F)c3c2)C2CC2)c(F)c1 [Example 156, (E)-3-(4-((E)-2-(4-Cyano-2-fluorophenyl)-2-cyclopropyl-1-(3-fluoro-1H-indazol-5-yl)vinyl)phenyl)acrylic acid] | ++ (++ = a single % value ≧ 40%) | ≤ 100 nM | ≥ 40% | ≤ 100 nM
O=C(O)/C=C/c1ccc(/C(=C(\c2ccncc2Cl)C2CC2)c2ccc3[nH]nc(F)c3c2)cc1 [Example 157, (E)-3-(4-((E)-2-(3-Chloropyridin-4-yl)-2-cyclopropyl-1-(3-fluoro-1H-indazol-5-yl)vinyl)phenyl)acrylic acid] | ++ (++ = a single % value ≧ 40%) | ≤ 100 nM | ≥ 40% | ≤ 100 nM
COc1cnc(/C(=C(\c2ccc(/C=C/C(=O)O)cc2)c2ccc3[nH]nc(F)c3c2)C2CC2)c(C)c1 [Example 158, (E)-3-(4-((E)-2-Cyclopropyl-1-(3-fluoro-1H-indazol-5-yl)-2-(5-methoxy-3-methylpyridin-2-yl)vinyl)phenyl)acrylic acid] | ++ (++ = a single % value ≧ 40%) | ≤ 100 nM | ≥ 40% | ≤ 100 nM
O=C(O)/C=C/c1cnc(/C(=C(\c2ccccc2)C2CCC2)c2ccc3[nH]nc(F)c3c2)cn1 [Example 159, (E)-3-(5-((Z)-2-Cyclobutyl-1-(3-fluoro-1H-indazol-5-yl)-2-phenylvinyl)pyrazin-2-yl)acrylic acid] | ++ (++ = a single % value ≧ 40%) | ≤ 100 nM | ≥ 40% | ≤ 100 nM
O=C(O)/C=C/c1ccc(/C(=C(\c2ccccc2)C2CCC2)c2ccc3[nH]nc(F)c3c2)nc1 [Example 160, (E)-3-(6-((Z)-2-Cyclobutyl-1-(3-fluoro-1H-indazol-5-yl)-2-phenylvinyl)pyridin-3-yl)acrylic acid] | ++ (++ = a single % value ≧ 40%) | ≤ 100 nM | ≥ 40% | ≤ 100 nM
O=C(O)/C=C/c1ncc(/C(=C(\c2ccccc2)C2CCC2)c2ccc3[nH]nc(F)c3c2)cc1F [Example 161, (E)-3-(5-((Z)-2-Cyclobutyl-1-(3-fluoro-1H-indazol-5-yl)-2-phenylvinyl)-3-fluoropyridin-2-yl)acrylic acid] | ++ (++ = a single % value ≧ 40%) | ≤ 100 nM | ≥ 40% | ≤ 100 nM
O=C(O)/C=C/c1ncc(/C(=C(\c2ccccc2)C2CCC2)c2ccc3[nH]nc(F)c3c2)cn1 [Example 162, (E)-3-(5-((Z)-2-Cyclobutyl-1-(3-fluoro-1H-indazol-5-yl)-2-phenylvinyl)pyrimidin-2-yl)acrylic acid] | ++ (++ = a single % value ≧ 40%) | > 100 nM | ≥ 40% | > 100 nM
CC/C(=C(/c1ccc(/C=C/C(=O)O)cc1)c1cccc2[nH]nc(F)c12)c1ccc(F)cc1Cl [Example 163, (E)-3-(4-((E)-2-(2-Chloro-4-fluorophenyl)-1-(3-fluoro-1H-indazol-4-yl)but-1-en-1-yl)phenyl)acrylic acid] | ++ (++ = a single % value ≧ 40%) | ≤ 100 nM | ≥ 40% | ≤ 100 nM
COc1nc(/C=C/C(=O)O)ccc1/C(=C(\c1ccccc1)C1CCC1)c1ccc2[nH]nc(F)c2c1 [Example 164, (E)-3-(5-((Z)-2-Cyclobutyl-1-(3-fluoro-1H-indazol-5-yl)-2-phenylvinyl)-6-methoxypyridin-2-yl)acrylic acid] | ++ (++ = a single % value ≧ 40%) | ≤ 100 nM | ≥ 40% | ≤ 100 nM
COc1cc(/C(=C(\c2ccccc2)C2CCC2)c2ccc3[nH]nc(F)c3c2)cnc1/C=C/C(=O)O [Example 165, (E)-3-(5-((Z)-2-Cyclobutyl-1-(3-fluoro-1H-indazol-5-yl)-2-phenylvinyl)-3-methoxypyridin-2-yl)acrylic acid] | ++ (++ = a single % value ≧ 40%) | > 100 nM | ≥ 40% | ≤ 100 nM
O=C(O)/C=C/c1ccc(/C(=C(\c2ccccc2)C2CCC2)c2ccc3[nH]nc(F)c3c2)c(Cl)c1 [Example 166, (E)-3-(3-Chloro-4-((Z)-2-cyclobutyl-1-(3-fluoro-1H-indazol-5-yl)-2-phenylvinyl)phenyl)acrylic acid] | ++ (++ = a single % value ≧ 40%) | ≤ 100 nM | ≥ 40% | ≤ 100 nM
